Among the data in BindingDB's records for doi:10.1021/jm00147a033 (1985) are Ki values, retold here.

The Ki is a measure of affinity in units of concentration, obtained from inhibition or displacement. Low values mean tighter binding, high ones weaker binding.

Assay [1] can be described thus: Compound was evaluated for reversible inhibition of hydrolysis acetylcholine by acetylcholinesterase and represented as KI(noncompetitive).
Assay [2] can be described thus: Compound was evaluated for reversible inhibition of hydrolysis acetylcholine by acetylcholinesterase and represented as KI(competitive).
Assay [3] is described as follows: Compound was evaluated for reversible inhibition of hydrolysis of acetylcholine by acetylcholinesterase and represented as KI(competitive).
A short description of assay [4]: Compound was evaluated for reversible inhibition of hydrolysis acetylcholine by acetylcholinesterase and represented as KI(competitive). This is another data set of the same source.

In the case of `C[N+](C)(C)CCO` [2-hydroxy-N,N,N-trimethylethanaminium], the affinity in assay [1] corresponds to a Ki of 7.6 mM. As to `C[S+](C)C` [Trimethyl-sulfonium; iodide], the Ki was found to be 2 mM in assay [2] and 7.2 mM in assay [1].

As for `CC(=O)CCC[N+](C)(C)[O-]` [5-dimethylamino-2-pentanone-N-oxide], in assay [3], the Ki was 14 mM.

As to `CC(C)(C)CCO` [3,3-Dimethyl-butan-1-ol], the Ki in assay [1] was 19 mM. In turn, `C[Si](C)(C)CCO` [2-Trimethylsilanyl-ethanol] came in with a Ki in assay [2] of 3.3 mM. In the case of `CC(=O)OCCS(C)(=O)=O` [Acetic acid 2-methanesulfonyl-ethyl ester], the affinity in assay [4], expressed as Ki, was 6.4 mM.

For `CS(C)(I)CCO` [(2-Hydroxy-ethyl)-dimethyl-sulfonium; iodide], affinity in assay [1] was put at a Ki of 13 mM. For `CS(=O)(=O)CCO` [2-Methanesulfonyl-ethanol], the values for the Ki in assay [2] and in assay [1] were 8.7 mM and 100 mM, respectively.
